Experiments:
[1] = system: body of the breast; test: clinical study, sonographic examination of the breast; type: in vivo, patients (women)
Method: In a clinical study, the reduction of the body of the breast was detected sonographically in 21 patients ranging in age from 18 to 52 years. In each case, 10 mg of dienogest were administered orally as a tablet over a period of 24 weeks at intervals of 12 hours. The daily dose therefore amounted to 20 mg of dienogest. The breast was examined sonographically before the treatment as well as after 12 and 24 weeks of continuous therapy.

[2] = blood fat values on administration of high dosages of dienogest; type: in vivo

With `C[C@]12CCC3=C4CCC(=O)C=C4CC[C@H]3[C@@H]1CC[C@@]2(O)CC#N` [dienogest, 17-hydroxy-3-oxo-19-nor-17α-pregna-4,9-diene-21-nitrile] the “body of the breast (detected sonographically)” value ([1]; 21 patients aged 18 to 52 years, 10 mg orally as tablet every 12 hours (20 mg daily) over 24 weeks, on the average, in all women) was “decreased significantly”, the “symptoms of mastopathic changes, such as duct ectasia” value ([1]; 21 patients, 10 mg orally every 12 hours (20 mg daily) over 24 weeks) was “receded completely” and the HDL cholesterol level [2] was “increased”.
